Source: patent US20100311714A1, “1H-IMIDAZO[4,5-c]QUINOLINONE COMPOUNDS” (priority 2009, published 2010)

Experiments:
Assay type in all cases: cell-based
[1] = system: PKB Ser473 phosphorylation in Rat1-myr-HA-p110 alpha cells; assay: Reverse protein array, PKB Ser473 phosphorylation in Rat1-myr-HA-p110 alpha cells; settings: Rattus norvegicus, 0.5 h, 30 minutes compound incubation, read-out: p-PKB/IC50_alpha
Experimental: (§1) No. 15140-114) and 10 μg/ml Puromycine (Sigma, cat. No. P9620).
(§2) The Rat1-myr-HA-p110 alpha, beta and delta cells were trypsinized and counted with a CASY TT cell counter (Schärfe System GmbH, Reutlingen Germany). The cells were diluted in fresh DMEM complete medium and 3×10^4 cells/150 μl/well seeded in 96-well TPP-tissue culture plates (TPP, cat. No. 92096). The plates were incubated at 37° C. and 5% CO2 under humidified condition for at least 20 h. Compound of formula I working solutions were prepared freshly as serial 8 step dilutions (vol/vol) in DMSO on the day of the experiment. The working solutions were further diluted 1/500 in cell culture medium to get final compound concentrations of 10, 3.333, 1.111, 0.370, 0.123, 0.041, 0.014, 0.005 μM. The final DMSO concentration was kept constant at 0.2%. cell culture medium containing 0.2% DMSO was used as vehicle treatment control. Post incubation, the cells were treated with the serial compound dilution. 50 μl of the compound medium mixture was added to the wells containing cells and 150 μl DMEM medium and incubated for 30 minutes (37° C., 5% CO2). After 30 minutes of incubation, the medium mixture was quickly removed by aspiration. For cell lysis, a mixture of 10% CLB1 CeLyA lysis buffer (Zeptosens, cat. No. 9000), 90% CSBL1 CeLyA spotting buffer (Zeptosens, cat. No. 9020) was freshly prepared and supplemented with 1% Octyl β-D-glucopyranoside (SIGMA, cat. No. 08001-5G) and 1 mM Na-Orthovanadate (Sigma, cat No. S-6508). 50 μl of the described lysis buffer mix was added to each well, followed by 10 minutes of incubation on ice. After an additional freeze-thaw cycle, another 50 μl of the lysis buffer mix without Octyl β-D-glucopyranoside was added to the wells, and 90 μl of the cell lysate was transferred to a 96-well V-bottom plate (Fisher Scientific, cat. No. 6067Y), followed by a centrifugation step (5 min, 1500 rpm at 19° C. in an Eppendorf 5810R centrifuge) to remove the unlysed cell debris.
(§3) The samples were spotted onto ZeptoMARK® PWG protein microarray chips (Zeptosens, Witterswil, Switzerland) with the piezoelectric microdispense-based, non-contact Nano-Plotter 2.1 (GeSiM, Grosserkmannsdorf, Germany). Each sample was spotted at 4 different sample concentrations (d1=100%, d2=75%, d3=50%, d4=25%) by diluting the cell lysate with the corresponding volume of lysis buffer mix. After spotting the ZeptoMARK® protein microarrays, the chips are incubated for 1 hour at 37° C. To receive a uniform blocking result, the CeLyA blocking buffer BB1 (Zeptosens, cat. No. 9040) is administered via an ultrasonic nebulizer. After 20 minutes of blocking the chips are extensively rinsed with deionized water (Milli-Q quality, 18MΩ×cm) and dried in a nitrogen air flow.
(§4) After the sample spotting and blocking procedure, the ZeptoMARK® chips were transferred to the ZeptoCARRIER (Zeptosens, cat. No. 1100), whose six flow cells individually address the six arrays on a chip, and washed twice with 200 μl CAB1 CeLyA assay buffer (Zeptosens, cat. No. 9032). The assay buffer was then aspirated and each compartment incubated with 100 μl of the primary target antibody (pAkt Ser473; CST#9271) at RT over night. Post incubation, the primary antibody was removed, the arrays washed twice with CAB1 buffer and further incubated with 100 μl of Alexa fluor 647-labeled anti rabbit IgG Fab fragments (Invitrogen; #Z25305) for one hour at RT in the dark. After incubation, the arrays were washed twice with 200 μl CAB1 buffer. The fluorescence of the target-bound Fab fragments is read out on the ZeptoReader (Zeptosens, Witterswil, Switzerland) using a laser (excitation wavelength 635 nm) and a CCD camera. The fluorescence signal was assessed with exposure times of 1, 3, 5 and 10 seconds, depending on the intensity of the signal. The resulting four images taken per array are stored as 16-bit TIF files. […]

[2] = system: PKB Ser473 phosphorylation in Rat1-myr-HA-p110 beta cells; assay: Reverse protein array, PKB Ser473 phosphorylation in Rat1-myr-HA-p110 beta cells; settings: Rattus norvegicus, 0.5 h, 30 minutes compound incubation, read-out: p-PKB/IC50_beta
Experimental: as §1, §2, §3, §4

[3] = system: PKB Ser473 phosphorylation in Rat1-myr-HA-p110 delta cells; assay: Reverse protein array, PKB Ser473 phosphorylation in Rat1-myr-HA-p110 delta cells; settings: Rattus norvegicus, 0.5 h, 30 minutes compound incubation, read-out: p-PKB/IC50_delta
Experimental: as §1, §2, §3, §4

Compound | IC50 [1] [nM] | IC50 [2] [nM] | IC50 [3] [nM]
CNc1ccc(-c2ccc3ncc4c(c3c2)n(-c2ccc(OC)nc2C)c(=O)n4C)cn1 [Example 11.2, 1-(6-Methoxy-2-methyl-pyridin-3-yl)-3-methyl-8-(6-methylamino-pyridin-3-yl)-1,3-dihydro-imidazo[4,5-c]quinolin-2-one] | 6.97 | 15.2 | 31.4
COc1ccc(-c2ccc3ncc4c(c3c2)n(-c2ccc(OC)nc2C)c(=O)n4C)cn1 [Example 11.5, 1-(6-Methoxy-2-methyl-pyridin-3-yl)-8-(6-methoxy-pyridin-3-yl)-3-methyl-1,3-dihydro-imidazo[4,5-c]quinolin-2-one] | 16.9 | 40.8 | 66.9
CNc1ncc(-c2ccc3ncc4c(c3c2)n(-c2ccc(OC)nc2C)c(=O)n4C)cn1 [Example 11.3, 1-(6-Methoxy-2-methyl-pyridin-3-yl)-3-methyl-8-(2-methylamino-pyrimidin-5-yl)-1,3-dihydro-imidazo[4,5-c]quinolin-2-one] | 8.83 | 18.1 | 23.2
COc1ccc(-n2c(=O)n(C)c3cnc4ccc(-c5cnc(N)c(C(F)(F)F)c5)cc4c32)c(C)n1 [Example 11.6, 8-(6-Amino-5-trifluoromethyl-pyridin-3-yl)-1-(6-methoxy-2-methyl-pyridin-3-yl)-3-methyl-1,3-dihydro-imidazo[4,5-c]quinolin-2-one] | 6.11 | 13 | 15.5
COc1ccc(-n2c(=O)n(C)c3cnc4ccc(-c5cnc(N(C)C)nc5)cc4c32)c(C)n1 [Example 11.4, 8-(2-Dimethylamino-pyrimidin-5-yl)-1-(6-methoxy-2-methyl-pyridin-3-yl)-3-methyl-1,3-dihydro-imidazo[4,5-c]quinolin-2-one] | 86.6 | 127 | 136
